In patent US20100098657A1, “Method of Treating Cancer with Immunomodulatory Compounds and IgG” (priority 2007, published 2010):
Like-named read-outs stand apart in the source and are kept apart here.

Legend:
[1] = test system: Rituximab-coated CD20+ Raji cells; assay: Monocyte-mediated lysis (ADCC) of Rituximab-coated Raji cells; format: cell-based, human
Experimental: (§1) NK cells and monocytes were isolated from fresh, buffy-coated, whole blood by 30-minute incubation with RossetteSep cocktail (StemCell Technologies, Inc.) followed by Ficoll-Hypaque density gradient centrifugation. CD56+ NK cells were isolated to ˜85% purity and CD14+ monocytes were isolated to ˜80% purity as determined by flow cytometry.
(§2) Preparation of Rituximab-coated target cancer cells: Various NHL cell lines (Namalwa, Raji, Farage, and Jeko-1) were treated with 20 μg/mL Rituximab (Rituximab, Genentech, Inc.) for 30 minutes at 37° C. Excess unbound Rituximab was then removed by a washing step.
(§3) Cytotoxicity analysis: NK cell cytotoxicity against the tumor cell lines was analyzed using a standard lactate dehydrogenase release assay (CytoTox 96 Non-radioactive Cytotoxicity Assay, Promega) to measure ADCC in a 50 μL aliquot of supernatant. The experimental release was corrected by subtraction of the spontaneous release of effector cells at the corresponding dilution. Spontaneous release from target cells alone was <15% of the maximum release as determined with target cells lysed in 1% Triton X-100.
(§4) Determination of effector: target ratio: Specific lysis for each effector-to-target (E:T) cell ratio was calculated using the following formula: % specific lysis=([experimental release−spontaneous release]/[maximum release−spontaneous release])×100.
To evaluate monocyte ADCC, similar methods were used to prepare the monocytes.

perforin = assay: NK cell perforin production; format: cell-based, human; settings: with IL-2
Experimental: (§5) To determine whether lenalidomide enhances IFN-γ production, the following assay was performed. Human IgG (Sigma), at a concentration of 100 μg/mL was coated onto 96-well, flat-bottom plates at 4° C. overnight. The unbound IgG was then washed away. […] Lenalidomide (Revlimid®, Celgene Corporation, Summit, N.J.) was added to the wells in the concentration range of 0.008-5 μM. After a 48-hour incubation, the supernatants were harvested and interferon-gamma (IFN-γ), as well as granzyme B and perforin levels were measured.

[2] = test system: Rituximab-coated CD20+ Jeko-1 (mantle cell lymphoma) cells; assay: ADCC assay: NK cell-mediated killing of Rituximab-coated CD20+ Jeko-1 cells; format: cell-based, human
Experimental: (§6) Preparation of NK cells: Purified NK cells (5×10^4) were seeded in 96-well U-bottom plates in 100 μL of 10% RPMI-1640 medium, supplemented with human AB+ serum. […] The cells were then incubated at 37° C. overnight.
as §2
[…] The cells were then co-incubated for 4 hours at 37° C.
as §3, §4

[3] = test system: Rituximab-coated Farage cells; assay: ADCC assay: NK cell specific lysis of Rituximab-coated Farage cells; format: cell-based, human; settings: E:T=10:1; for EC50: Homo sapiens, Farage; for increase of cell lysis: vs Rituximab-only treated cells
Experimental: as §6, §2
(§7) Addition of Rituximab-coated target cells to NK cells: The Rituximab-coated target cells (5×103/100 μL/well) were added to the pretreated effector NK cells at a ratio of 10:1. The cells were then co-incubated for 4 hours at 37° C.
as §3, §4

pPLC-γ2 = assay: Immunoblot analysis of pPLC-γ2; format: cell-based; settings: IL-12 plus IgG
Experimental: (§8) FIG. 7 is a panel of bar graphs showing the quantitation of an immunoblot comparison of cells treated with either IL-12 alone, IgG alone, IL-12 plus IgG, or IL-12 plus IgG plus lenalidomide (at 0.1 μM to 10 μM).
(§9) Additionally, administration of the immunomodulatory compound lenalidomide was capable of increasing both pPLC-γ2 and pERK levels (FIGS. 7B and 7C). Increase in the levels of these proteins were also observed in connection with pomalidomide (FIGS. 13A and 13B). PLC-γ2 is involved in the maturation and activation of NK cells and triggers the release of lytic granules (Regunathan et al., 2006, Jour. Immunol 175:749-754, which is incorporated by reference herein in its entirety). PLC-γ2 also induces IFN-γ production and is necessary for cytotoxicity and chemokine production.

[4] = test system: Rituximab-coated Namalwa cells; assay: ADCC assay: NK cell specific lysis of Rituximab-coated Namalwa cells; format: cell-based, human; settings: E:T=10:1; for EC50: Homo sapiens
Experimental: as §6, §2, §7, §3, §4

[5] = test system: Trastuzumab-coated SK-BR-3 cells; assay: NK cell cytotoxicity against Trastuzumab-coated SK-BR-3 cells; format: cell-based, human
[6] = test system: Cetuximab-coated HCT-116 cells; assay: NK cell cytotoxicity against Cetuximab-coated HCT-116 cells; format: cell-based, human; settings: presence of IL-2
Fas-L = Fas-L expression on CD56+ NK cells (flow cytometry); format: cell-based, human
Experimental: Cytometry was undertaken on 50 μL samples containing 1×10^6 cells/mL in washing buffer, 2% FBS with 0.1% NaN3 in PBS. Fluorochrome-conjugated antibodies, unconjugated antibodies, and isotype control mAb were obtained from PharMingen (San Diego, Calif.). The cells were stained with anti-CD56-PE, anti-FasL-FITC or isotype control mAb (1 μg/10^6 cells), and analyzed by flow cytometry according to the manufacturer's instructions.

pERK = assay: Immunoblot analysis of pERK; format: cell-based; settings: IL-12 plus IgG
Experimental: as §8, §9

granzyme B = assay: NK cell granzyme B production; format: cell-based, human; settings: over that observed with IL-2 alone; dose-dependent
Experimental: as §5

NK cells [7] = assay: NK IgG-induced IFN-γ assay; format: cell-based, human; settings: for EC50: Homo sapiens, read-out: EC50 of enhancement of IFN-γ production
Experimental: as §1, §5

NK cells [8] = assay: NK cell chemokine/cytokine production in response to Trastuzumab-coated SK-BR3 cells; format: cell-based, human
Experimental: As shown herein, immunomodulatory compounds, either alone or in combination with other agents, can alter the expression of several growth factors.
The effects of immunomodulatory compounds lenalidomide and pomalidomide on NK cell chemokine/cytokine production in response to Trastuzumab-coated SK-BR3 cells were assessed using procedures substantially similar to those described in Section 6.6., above.

[9] = lenalidomide 1 μM with IL-2, E:T 50:1
[10] = presence of immobilized IgG and IL-2

## Nc1cccc2c1CN(C1CCC(=O)NC1=O)C2=O (stereo not drawn) [lenalidomide, 1-oxo-2-(2,6-dioxopiperidin-3-yl)-4-aminoisoindoline]
[1]; data not shown
  monocyte-mediated lysis: enhance
[1]; [9]
  increase in tumor cell-lysis activity: 2 fold
  monocyte-mediated killing: > 60%
perforin
  perforin production: no effect
[2]; lenalidomide 1 μM + IL-2, Rituximab-coated cells, E:T 50:1
  NK cell-mediated killing: 95%
[2]; lenalidomide and Rituximab combined, background killing=40%
  enhancement of NK cell-mediated killing above background: 55%
[2]; single agent, background killing=40%
  increase in tumor cell killing above background: 5%
[2]; vs Rituximab-only treatment
  increase in NK cell-mediated killing activity: 1.4 fold
[2]; vs uncoated (control) cells
  increase in NK cell-mediated killing activity: > 2 fold
[3]; IL-2
  EC50: 42 nM
  increase of cell lysis: 1.8 fold
[3]; IL-12
  EC50: 33 nM
  increase of cell lysis: 1.6 fold
pPLC-γ2
  pPLC-γ2 levels: increasing
[4]; presence of IL-2 or IL-12, vs Rituximab-only treated cells
  increase of NK cell specific lysis: 5 fold
[4]; IL-2
  EC50: 190 nM
[4]; IL-12
  EC50: 240 nM
[5]; presence of IL-2
  NK cell cytotoxicity: significantly increases
[5]; presence of IL-12
  NK cell cytotoxicity: significantly increases
[6]
  NK cell cytotoxicity: significantly increases
Fas-L; lenalidomide 1 μM + IL-2 + immobilized IgG
  enhancement of NK cell Fas-L expression: > 2 fold
Fas-L; lenalidomide 1 μM + IL-2 + immobilized IgG, from <2%
  NK cell Fas-L expression: 25%
Fas-L; lenalidomide 10 μM + immobilized IgG, from <5%
  percentage of CD56+ NK cells expressing Fas-L: > 10%
Fas-L; lenalidomide 0.1-10 μM + IL-2 10 ng/mL + immobilized IgG
  NK cell Fas-L expression: greater than that achieved by either agent alone
pERK
  pERK levels: increasing
Granzyme B
  granzyme B production: enhanced
NK cells [7]; immobilized IgG + IL-2
  EC50: 90 nM
NK cells [7]; immobilized IgG + IL-12
  EC50: 46 nM
NK cells [7]; lenalidomide 0.008-5 μM + human IgG + IL-2, vs IgG plus IL-2 alone
  enhancement of IFN-γ production of NK cells: 3 fold
NK cells [7]; lenalidomide 0.008-5 μM + human IgG + IL-12, vs IgG plus IL-12 alone
  enhancement of IFN-γ production of NK cells: 8 fold
NK cells [7]; lenalidomide alone or lenalidomide plus IgG, no IL-2/IL-12
  IFN-γ production: no IFN-γ was observed
NK cells [8]; compound alone
  production of any chemokines/cytokines: did not induce
NK cells [8]; [10]
  production of GM-CSF: dose-dependently enhanced
  production of IL-8: dose-dependently enhanced
  production of IP-10: dose-dependently enhanced
  production of MCP-1: dose-dependently enhanced
  production of MIP-1α: dose-dependently enhanced
  production of MIP-1β: not
  production of RANTES: dose-dependently enhanced
